Data on two compounds can be found in paper PMC4306947, “Synthesis and Antiproliferative Activity of Thiazolyl-bis-pyrrolo[2,3-b]pyridines and Indolyl-thiazolyl-pyrrolo[2,3-c]pyridines, Nortopsentin Analogues” (Marine Drugs, 2015).

By GI50 is commonly meant the concentration at which growth is held to half of that of the control.

One experiment relates to HCT-15. The experiment is described as follows: NCI-60 in vitro tumor cell screen, HCT-15. In kind it is cell-based. Particulars: Homo sapiens; HCT-15, Colon Cancer. On the procedure:
(§1) All the synthesized thiazoles 1a–l, 2a–j, 3a–f and 4a–f were evaluated by the National Cancer Institute (Bethesda MD) for cytotoxicity against the NCI-60 cell line panel using standard protocols. Initially, all derivatives were tested at a single dose (10^−5 M) on the full panel of approximately 60 human tumor cell lines derived from 9 human cancer cell types, that have been grouped in disease sub-panels including leukemia, non-small-cell lung, colon, central nervous system (CNS), melanoma, ovarian, renal, prostate and breast cancers (data not shown). Compounds 1k and 4c were further selected for full evaluation at five concentration levels (10^−4–10^−8 M).
(§2) The antitumor activity of compounds 1k and 4c was given by three parameters for each cell line: GI50 (GI50 is the molar concentration of the compound that inhibits 50% net cell growth), TGI (TGI is the molar concentration of the compound leading to total inhibition of net cell growth), and LC50 (LC50 is the molar concentration of the compound that induces 50% net cell death). The average values of mean graph midpoint (MG_MID) were calculated for each of these parameters.

In the next experiment the test system is TK-10. Kind of experiment: NCI-60 in vitro tumor cell screen, TK-10. In kind it is cell-based. Particulars: Homo sapiens; TK-10, Renal Cancer. As for the experimental part:
as §1, §2

Another experiment deals with CCRF-CEM. Kind of experiment: NCI-60 in vitro tumor cell screen, CCRF-CEM. Format: cell-based. Particulars: Homo sapiens, Leukemia. On the procedure: as §1, §2
For a further experiment, the system named is SNB-19. The experiment is described as follows: NCI-60 in vitro tumor cell screen, SNB-19. Format: cell-based. Particulars: Homo sapiens; SNB-19, CNS Cancer. On the procedure:
as §1, §2

The next experiment concerns HCT-116 cells. The experiment is described as follows: Mitochondrial transmembrane potential (DiOC6 flow cytofluorometry). Particulars: 24 h. Format: cell-based, human. On the procedure:
Changes of mitochondrial transmembrane potential (Δψm) were assessed by flow cytofluorometry, using the cationic lipophilic dye 3,3′-dihexyloxacarbocyanine iodide(3) (DiOC6) (Molecular Probes, Inc., Life Technologies Italia, Monza, Italy) which accumulates in the mitochondrial matrix. Changes in mitochondrial membrane potential are indicated by a reduction in the DiOC6-induced fluorescence intensity. After 24 h treatment, HCT116 cells were incubated with DiOC6 at a 40 nmol/L final concentration, for 15 min at 37 °C. After centrifugation, cells were washed with PBS and suspended in 500 μL PBS. Fluorescent intensities were analysed in at least 1 × 10^4 cells for each sample.

For the next experiment, the system named is SF-539. The experiment is described as follows: NCI-60 in vitro tumor cell screen, SF-539. In kind it is cell-based. Particulars: Homo sapiens; SF-539, CNS Cancer. On the procedure:
as §1, §2

The subject of another experiment is SF-268. The experiment is described as follows: NCI-60 in vitro tumor cell screen, SF-268. Particulars: Homo sapiens; SF-268, CNS Cancer. Format: cell-based. As for the experimental part:
as §1, §2

The test system of the next experiment is U251. The experiment is described as follows: NCI-60 in vitro tumor cell screen, U251. In kind it is cell-based. Particulars: Homo sapiens, U-251; U251, CNS Cancer. On the procedure: as §1, §2
A further experiment has as its system SNB-75. The experiment is described as follows: NCI-60 in vitro tumor cell screen, SNB-75. In kind it is cell-based. Particulars: Homo sapiens; SNB-75, CNS Cancer. On the procedure:
as §1, §2

For the next experiment, the system named is OVCAR-8. The experiment is described as follows: NCI-60 in vitro tumor cell screen, OVCAR-8. Format: cell-based. Particulars: Homo sapiens; OVCAR-8, Ovarian Cancer. On the procedure:
as §1, §2

For another experiment, the system named is HCT-116. Kind of experiment: NCI-60 in vitro tumor cell screen, HCT-116. Format: cell-based. Particulars: Homo sapiens; HCT-116, Colon Cancer; measured by NCI after 72 h treatment. As for the experimental part: as §1, §2
The subject of a further experiment is HT29. Kind of experiment: NCI-60 in vitro tumor cell screen, HT29. Particulars: Homo sapiens, HT-29; HT29, Colon Cancer. In kind it is cell-based. As for the experimental part:
as §1, §2

For the next experiment, the system named is OVCAR-3. The experiment is described as follows: NCI-60 in vitro tumor cell screen, OVCAR-3. Particulars: Homo sapiens; OVCAR-3, Ovarian Cancer. In kind it is cell-based. On the procedure:
as §1, §2

A further experiment relates to NCI-H522. Kind of experiment: NCI-60 in vitro tumor cell screen, NCI-H522. Particulars: Homo sapiens; NCI-H522, Non-Small Cell Lung Cancer. Format: cell-based. As for the experimental part: as §1, §2
A further experiment relates to BT-549. The experiment is described as follows: NCI-60 in vitro tumor cell screen, BT-549. Format: cell-based. Particulars: Homo sapiens; BT-549, Breast Cancer. On the procedure:
as §1, §2

The next experiment relates to KM12. Kind of experiment: NCI-60 in vitro tumor cell screen, KM12. Particulars: Homo sapiens; KM12, Colon Cancer. In kind it is cell-based. On the procedure:
as §1, §2

The next experiment relates to SK-MEL-5. Kind of experiment: NCI-60 in vitro tumor cell screen, SK-MEL-5. Format: cell-based. Particulars: Homo sapiens; SK-MEL-5, Melanoma. As for the experimental part:
as §1, §2

For another experiment, the system named is SF-295. The experiment is described as follows: NCI-60 in vitro tumor cell screen, SF-295. Particulars: Homo sapiens; SF-295, CNS Cancer. In kind it is cell-based. As for the experimental part: as §1, §2
The next experiment concerns EKVK. Kind of experiment: NCI-60 in vitro tumor cell screen, EKVK. In kind it is cell-based. Particulars: Homo sapiens, Non-Small Cell Lung Cancer. As for the experimental part:
as §1, §2

A further experiment has as its system HOP-62. Kind of experiment: NCI-60 in vitro tumor cell screen, HOP-62. Particulars: Homo sapiens; HOP-62, Non-Small Cell Lung Cancer. In kind it is cell-based. On the procedure: as §1, §2
Another experiment relates to M14. Kind of experiment: NCI-60 in vitro tumor cell screen, M14. Format: cell-based. Particulars: Homo sapiens; M14, Melanoma. On the procedure: as §1, §2
Experiment [1] deals with HCT-116 colorectal carcinoma cells. Kind of experiment: MTT viability assay, HCT-116 cells, 24 h. Particulars: Homo sapiens, 5–100 μM, read-out: GI50 after 24 h treatment. In kind it is cell-based. As for the experimental part:
Nortopsentin analogues, prepared as described above, were dissolved in dimethyl sulfoxide (DMSO) and then diluted in culture medium to have a DMSO concentration not exceeding 0.1%. HCT-116 and Caco-2 cell lines were purchased from American Type Culture Collection, Rockville, MD, USA and DMEM supplemented with […], […] bovine serum (FBS), penicillin (100 U/mL), streptomycin (100 μg/mL) and gentamicin (5 μg/mL). Cells were maintained in log phase by seeding twice a week at a density of 3 × 10^8 cells/L in humidified 5% CO2 atmosphere, at 37 °C. In all experiments, HCT-116 cells were made quiescent through overnight incubation before treatment with tested compounds or vehicle alone (control cells), while Caco-2 cells were treated 15 days after confluence, at which time the cells are differentiated in normal intestinal-like cells. […]
Cytotoxic activity of the nortopsentin derivatives 1k and 4c was determined by the colorimetric assay based on the reduction of […] (MTT) to purple formazan by mitochondrial dehydrogenases. […] Cells were incubated 2 h at 37 °C, then medium was discarded by centrifugation, formazan blue formed in the cells dissolved in DMSO, and absorbance measured at 570 nm in a microplate reader (Bio-RAD, Hercules, CA, USA). […] GI50 was calculated by the curve of percent viability vs. concentration. […]
For orientation: Formazan colour is commonly taken as a measure of viable cells.

In the next experiment the test system is UACC-62. Kind of experiment: NCI-60 in vitro tumor cell screen, UACC-62. Format: cell-based. Particulars: Homo sapiens; UACC-62, Melanoma. As for the experimental part: as §1, §2
Setting [2] is: concentration GI30, control 3.9%.
Setting [3] is: concentration GI70, control 3.9%.

Take `Clc1nccc2c(-c3csc(-c4c[nH]c5ccc(Br)cc45)n3)c[nH]c12` [Compound 4c, 3-[2-(5-Bromo-1H-indol-3-yl)-1,3-thiazol-4-yl]-7-chloro-1H-pyrrolo[2,3-c]pyridine]: the GI50 worked out at 1.4 µM with HCT-15; 4.16 µM in the experiment on TK-10; 3.16 µM in the experiment with CCRF-CEM; 3.25 µM in the experiment on SNB-19; 1.87 µM in the experiment with SF-539; 4.06 µM in the experiment on SF-268. The GI50 in the experiment with U251 turned out to be 2.05 µM; in the experiment on SNB-75 it was 2.37 µM; with OVCAR-8, 3.65 µM; with HCT-116, 2.35 µM; in the experiment on HT29, 2.66 µM; with OVCAR-3 it was 3.45 µM. The GI50 is 2.28 µM with NCI-H522; 4.7 µM in the experiment on BT-549; 2.15 µM in the experiment on KM12; 2.61 µM in the experiment with SK-MEL-5; 2.48 µM with SF-295; 3.11 µM with EKVK. The GI50 turned out to be 2.11 µM with HOP-62, 2.22 µM in the experiment with M14, 13.2 ± 0.95 µM in experiment [1] and 2.19 µM in the experiment with UACC-62. Also, the results for the “mitochondrial transmembrane potential (Δψm) loss, AQ” value in the experiment with HCT-116 cells (setting [2]) and in the experiment with HCT-116 cells (setting [3]) were 3.8% and 14.7%, respectively.
On to `Cn1cc(-c2csc(-c3c[nH]c4ncccc34)n2)c2cc(Br)cnc21` [Compound 1k, 5-Bromo-1-methyl-3-[2-(1H-pyrrolo[2,3-b]pyridin-3-yl)-1,3-thiazol-4-yl]-1H-pyrrolo[2,3-b]pyridine], for which the GI50 was 13.7 µM in the experiment on HCT-15; 3.77 µM in the experiment on TK-10; 6.81 µM in the experiment with CCRF-CEM; 6.74 µM in the experiment on SNB-19; 27.7 µM with SF-539; 6.01 µM in the experiment on SF-268. The GI50 with U251 turned out to be 2.7 µM; with SNB-75 it was 2.18 µM; with OVCAR-8, 3.72 µM; with HCT-116 it was 2.91 µM; with HT29 it was 6.75 µM; in the experiment with OVCAR-3, 2.91 µM. The GI50 in the experiment on NCI-H522 came out at 4.86 µM; with BT-549, 20.5 µM; with KM12, 5.7 µM; in the experiment with SK-MEL-5, 2.05 µM; in the experiment with SF-295, 3.01 µM; in the experiment on EKVK it was 1.27 µM. In addition, the GI50 with HOP-62 came out at 2.39 µM; in the experiment with M14, 4.06 µM; in [1], 33.5 ± 2.31 µM; in the experiment with UACC-62 it was 3.47 µM. The “mitochondrial transmembrane potential (Δψm) loss, AQ” value with HCT-116 cells (setting [2]) is reported as 26.0%; in the experiment with HCT-116 cells (setting [3]), 35.3%.
